Columns and labels:
Karpas-299 cells [1] = test: sPD-L1 ELISA of supernatants of Karpas-299 cells treated with protease inhibitors; type: cell-based; conditions: for Karpas-299 production of sB7H1: Example 3, supernatants by ELISA, p<0.0001; for secretion of sPD-L1: Karpas-299, 10 MM cells per ml, 24 hours, FIG. 4A
Protocol: (§1) Several tumor cell lines were treated with PBS (placebo) or with various protease inhibitors, including matrix metalloprotease inhibitors TAPI-2 and TAPI-0, aspartic protease inhibitor Pepstatin, cysteine protease inhibitor E-64, serine protease inhibitor Aprotinin, combinations of these inhibitors, and an array of other matrix metalloprotease inhibitors. Cell supernatants were queried for sPD-L1 by ELISA as published elsewhere (Frigola et la., supra). In brief, paired mouse IgG2 monoclonal antibodies against extracellular rhB7-H1 were utilized in a capture-detection plate assay using biotinylation and HRP-streptavidin detection. […] Concentrations were determined by optical density measurements along a known standard curve of rhB7-H1. Karpas-299 cells were incubated at 10 MM cells per ml in cell culture media (RPMI plus FBS plus Penicillin/Streptomycin plus buffering reagents) over 24 hours in the presence of 1 μl/100 μl DMSO or PBS (placebo), TAPI-2 at 278 μM, Pepstatin at 206.5 μM, E-64 at 185 μM, or Aprotinin at 220 μM, or a combination of the above materials at various concentrations. […] All statistical analyses were performed using R! software. Two-sided, unpaired Student t tests assessed statistical differences in experimental groups except where otherwise indicated. P values indicate comparison to vehicle control groups. P<0.05 was considered statistically significant.
Subsequent studies were conducted in which Karpas-299 cells were incubated with different matrix metalloprotease inhibitors with varying specificities. For example, Karpas-299 cells were incubated at 10 MM cells per ml in cell culture media over 24 hours in the presence of 1 μl/100 μl DMSO (control), 50 μM TAPI-2, 50 μM TAPI-0, 50 μM GI254023X, 5 μM Ro 32-3555, 5 μM ARP 101, 50 μM UK 370106, 500 pM MMP-9 inhibitor I, 5 μM Doxycycline, or some combination thereof.
Aderbasib is a selective inhibitor of matrix metalloproteases ADAM10 and ADAM17. Karpas-299 cells were incubated at 1 MM-10 MM cells/ml and treated for 24 hours with concentrations of aderbasib ranging from 320 pM to […].
(§2) Karpas-299 lymphoma cells producing sB7-H1 were cultured with an array of protease inhibitors. Supernatants from these cultures were isolated and analyzed for sB7H1 concentration by ELISA. Subsequently, activated human CD8+ T cells were cultured with recombinant sB7H1 protein and cell survival was measured at 24 hours. CD8+ T cells also were cultured with sB7H1-rich tumor cell line supernatants versus sB7H1-depleted supernatants over 48 hours in the presence of placebo, low dose (10 nM), or high dose (1 μM) anti-PD-1 antibody pembrolizumab, and cell survival was measured.

[2] = test system: Mel-B7H1 (transgenic melanoma) cells; test: sPD-L1 ELISA of supernatants of Mel-B7H1 cells; type: cell-based; conditions: FIG. 4D
Protocol: as §1, with “significant. […]” for “significant.”

[3] = test system: Dul45 prostate cancer cells; test: sPD-L1 ELISA of supernatants of Dul45 prostate cancer cells; type: cell-based; conditions: FIG. 4C
Protocol: as §1
Further studies were conducted using different types of cells.

CD8+ T cells = test: CD8+ T cell survival with Karpas-299 supernatants, TMRE/Annexin-V flow cytometry; type: cell-based, human
Protocol: CD8+ T cells isolated from healthy subjects were incubated in the presence of 50% Karpas-299 supernatants of varying types and 50% fresh cell culture media. Supernatant types included sPD-L1-rich supernatants from Karpas-299 cells, supernatants from Karpas-299 cells treated with TAPI-0 to prevent sPL-L1 production, supernatants from Karpas-299 cells “spiked” with TAPI-0 after sPD-L1 production, and fresh culture media controls (FIG. 5C). Karpas-299 cell supernatants were generated by incubation at 10 MM cells/ml for 48 hours. TMRE/Annexin-V binding was measured by flow cytometry to assess the level of CD8+ T cell survival. Antibodies and reagents used for flow cytometry were Annexin-V-FITC, anti-mouse CD16/32 (BioLegend; San Diego, Calif.); anti-PD-L1, mouse isotype control (eBioScience/Thermo Fisher Scientific; Waltham, Mass.), TMRE-PE (Abcam; Cambridge, Mass.), BD Wash/Perm (Becton Dickenson; Waltham, Mass.). Flow cytometry was performed and analyzed using FlowJo (Treestar; Ashland, Oreg.).
CD8+ T cells were incubated with supernatants from Karpas-299 cells as above, plus varying doses of several anti-PD-1 antibodies.
as §2

PD-L1 mRNA = PD-L1 mRNA expression by RT-PCR in Karpas-299 cells; type: cell-based; conditions: data not shown
[4] = test system: A786-0 (renal cell carcinoma) cells; test: sPD-L1 ELISA of supernatants of A786-0 cells treated with protease inhibitors; type: cell-based
Protocol: Tumor cells were treated with PBS (placebo) or with various protease inhibitors, including MMP inhibitors TAPI-2 and TAPI-0, aspartic protease inhibitor Pepstatin, cysteine protease inhibitor E-64, serine protease inhibitor Aprotinin, combinations of these inhibitors, and an array of other MMP inhibitors. Cell supernatants were queried for sPD-L1 by ELISA. FIG. 4A, Karpas-299 (lymphoma) cells were treated with the indicated protease inhibitors. FIG. 4B, A786-0 (renal cell carcinoma) cells were treated with the indicated protease inhibitors. FIG. 4C, Dul45 cells were treated with the indicated protease inhibitors. FIG. 4D, Mel-B7H1 (transgenic melanoma) cells were treated with the indicated protease or metalloprotease inhibitors. FIG. 4E is a graph plotting sPD-L1 production induced by interferon treatment or high cell titer in A786-0 cells. Cells grown at 1 MM/ml in control DMSO produced little sPD-L1. […] FIG. 4F is a graph plotting the amount of sPD-L1 in supernatants of Karpas-299 cells treated with control or with varying concentrations of the ADAM10/17 inhibitor aderbasib.
Several tumor cell lines were treated with PBS (placebo) or with various protease inhibitors, including matrix metalloprotease inhibitors TAPI-2 and TAPI-0, aspartic protease inhibitor Pepstatin, cysteine protease inhibitor E-64, serine protease inhibitor Aprotinin, combinations of these inhibitors, and an array of other matrix metalloprotease inhibitors. Cell supernatants were queried for sPD-L1 by ELISA as published elsewhere (Frigola et la., supra). In brief, paired mouse IgG2 monoclonal antibodies against extracellular rhB7-H1 were utilized in a capture-detection plate assay using biotinylation and HRP-streptavidin detection. […] Concentrations were determined by optical density measurements along a known standard curve of rhB7-H1. […] Two-sided, unpaired Student t tests assessed statistical differences in experimental groups except where otherwise indicated. […]

Karpas-299 cells [5] = test: PD-L1 flow cytometry of Karpas-299 cells; type: cell-based; conditions: vs DMSO, FIGS. 7A, 7B
Protocol: (§3) FIGS. 7A and 7B are flow cytometry plots and graphs showing that cell PD-L1 expression is restored by treatment with an inhibitor of ADAM10 and/or ADAM17, and is decreased by treatment with exogenous recombinant ADAM10 or ADAM17. Cells were incubated in the presence of the indicated treatments, and PD-L1 flow cytometry was performed.

A549 cells = test: PD-L1 flow cytometry of A549 cells; type: cell-based; conditions: vs DMSO, FIGS. 7C, 7D
Protocol: as §3

## CNC(=O)[C@@H](NC(=O)[C@H](CCCc1ccccc1)[C@H](C)N(O)C=O)C(C)(C)C [GI254023X]
Karpas-299 cells [1]
  Karpas-299 production of sB7H1: inhibited
[2]
  sPD-L1 expression: most significantly reduced

## CCN(CC)Cc1cc(C)c(N(Cc2ccccc2)S(=O)(=O)c2ccc(OC)cc2)c(C(=O)NO)c1 [MMPI9]
[3]
  sPD-L1 secretion versus controls: significantly reduced

## CC(C)C[C@H](CC(=O)NO)C(=O)N[C@@H](Cc1ccc2ccccc2c1)C(=O)N[C@@H](C)C(N)=O [TAPI-0]
Karpas-299 cells [1]
  Karpas-299 production of sB7H1: inhibited
Karpas-299 cells [1]; 50 μM TAPI-0, vs DMSO, p=3.97×10^−7
  secretion of sPD-L1: reduced the secretion of sPD-L1
[3]
  sPD-L1 secretion versus controls: significantly reduced
CD8+ T cells; 50% supernatant from TAPI-0 treated Karpas-299 cells and 50% fresh media, FIG. 5C
  rate of apoptosis of CD8+ T cells: 2.46%
CD8+ T cells; Karpas-299 supernatants with added TAPI-0
  CD8+ T cell death: did not induce cell death
PD-L1 mRNA; Karpas-299, 50 μM TAPI-0, 24 hours
  PD-L1 mRNA expression: without reducing PD-L1 mRNA expression
[4]; A786-0 at 1 MM/ml, interferon plus TAPI-0, interferon alone 923 pg/ml, n=5, FIG. 4E
  mean sPD-L1 production: 0 pg/mL

## CC(C)C[C@H](CC(=O)NO)C(=O)N[C@H](C(=O)N[C@@H](C)C(=O)NCCN)C(C)(C)C [TAPI-2]
Karpas-299 cells [1]
  Karpas-299 production of sB7H1: inhibited
Karpas-299 cells [1]; TAPI-2 at 278 μM, vs DMSO or PBS, p=5.6×10^−12
  secretion of sPD-L1: reduced the secretion of sPD-L1
[3]
  sPD-L1 secretion versus controls: significantly reduced
[2]
  sPD-L1 expression: most significantly reduced
PD-L1 mRNA; Karpas-299, TAPI-2 at 278 μM, 24 hours
  PD-L1 mRNA expression (RT-PCR): without reducing PD-L1 mRNA expression
Karpas-299 cells [5]
  PD-L1 expression (flow cytometry): restored
[4]; A786-0 grown between 1 MM and 10 MM cells per ml, FIG. 4B
  sPD-L1 secretion: significantly reduced
A549 cells
  PD-L1 expression (flow cytometry): restored

From patent publication US20210361767A1, “RESCUING CANCER PATIENTS FROM RESISTANCE TO TREATMENT WITH INHIBITORS OF PD-1/PD-L1 INTERACTIONS” (Mayo Foundation for Medical Education and Research, priority 2018, published 2021)
